Data as given in patent US5281585A, “Fibrinogen receptor antagonists for inhibiting aggregation of blood platelets” (Merck & Co., Inc., priority 1992, dated 1994).

What was measured:
platelet aggregation [1] = experiment: In vivo activity in dogs: ex vivo platelet aggregation, intravenous infusion; set-up: species or system dog; settings: 10 μg/kg/min and 25 μg/kg/min
Method: (§1) The following protocols were used to determine in vivo activity in dogs of fibrinogen receptor antagonists of the present invention.
(§2) A mongrel dog of either sex (weighing 7.5 to 11.5 kg) is comfortably positioned in a nylon sling which exposes the legs and keeps the dog stationary. Five ml of blood is withdrawn from either saphenous or cephalic veins with a plastic syringe containing 0.5 ml of 3.8% citrate via a 19-gauge butterfly. An additional I ml of citrated blood is taken to measure whole blood platelet counts. Ex vivo platelet aggregations are done with the agonists ADP (10 μM) and collagen (10 μg/ml) both primed with 1μM epinephrine. Platelet-rich plasma (PRP) is obtained by centrifuging the blood at 150 x g for 5 minutes. Platelet counts are adjusted to 200,000/mm^3 with platelet-poor plasma.
For the intravenous infusion, blood samples for ex vivo platelet aggregation are taken at the following time points: 0,30, 45, 60, 90 and 120 min into the infusion and 2,5, 15, 30, 60, 90, 120, 180, 240, 300, 360, and 420 minutes after the infusion stops. At each time point, the remaining platelet-poor plasma is saved and frozen for drug levels. The drug is infused for 120 minutes at a constant rate of 0.1 ml/min.
(§3) In the oral and intravenous groups, blood collection times are recorded at each time point in order to determine drug plasma levels.

platelet aggregation [2] = experiment: In vivo activity in dogs: ex vivo platelet aggregation, oral administration; set-up: species or system dog; settings: single oral administration of 2 mg/kg, for a period of eight hours
Method: as §1, §2
Oral administration of a drug is done either as a gelatin capsule or a gastric lavage. For the gastric lavage method, 5 ml of the drug solution is administered to the dog through a feeding tube. Blood samples for ex vivo platelet aggregation are taken at the following time points: 0,20, 40, 70, 90, 150, 200, 250, 300, 350, 480 min. 24 hr. 30 hr, and 48 hr. At each time point, the remaining platelet-poor plasma is saved and frozen for drug levels. […]
as §3

O=C(O)CCNC(=O)CN1CCCC(CCC2CCNCC2)C1=O (stereo not drawn)
Inhibition of platelet aggregation (% of control) during infusion (platelet aggregation [1]; during infusion): nearly complete | Inhibition of platelet aggregation (% of control) after infusion cessation (platelet aggregation [1]; for several hours after infusion cessation): partial inhibition | % Inhibition of platelet aggregation (platelet aggregation [2]): greater than 50%
